Reference: the supplement of paper PMC8149375

What was measured:
Conditions in all cases: treatment: drug alone; 5 days
[1] = system: 769-P; experiment: GI50, drug alone; higher = less potent
Procedure: (§1)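 Primary HTS: 8 RCC cell lines treated with 8 doses (up to 10 uM) of each library drug alone for 5 days; viability read by CellTiter-Glo and normalised to DMSO. GI50 was fitted with XLfit (4-parameter), AUC is the area under the dose-response curve, and minimum viability is the lowest fraction of DMSO viability across doses.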

[2] = system: 786-O; experiment: GI50, drug alone; higher = less potent
Procedure: as §1

[3] = system: A498; experiment: GI50, drug alone; higher = less potent
Procedure: as §1

[4] = system: ACHN; experiment: GI50, drug alone; higher = less potent
Procedure: as §1

[5] = system: CAKI-1; experiment: GI50, drug alone; higher = less potent
Procedure: as §1

[6] = system: SN12C; experiment: GI50, drug alone; higher = less potent
Procedure: as §1

[7] = system: TK-10; experiment: GI50, drug alone; higher = less potent
Procedure: as §1

[8] = system: UO-31; experiment: GI50, drug alone; higher = less potent
Procedure: as §1

[9] = system: 769-P; experiment: minimum viability across doses, drug alone, relative to DMSO (fraction); higher = less growth inhibition
Procedure: as §1

[10] = system: 786-O; experiment: as above
Procedure: as §1

[11] = system: A498; experiment: as above
Procedure: as §1

[12] = system: ACHN; experiment: as above
Procedure: as §1

[13] = system: CAKI-1; experiment: as above
Procedure: as §1

[14] = system: SN12C; experiment: as above
Procedure: as §1

[15] = system: TK-10; experiment: as above
Procedure: as §1

[16] = system: UO-31; experiment: as above
Procedure: as §1

[17] = system: 769-P; experiment: AUC of dose-response viability curve, drug alone (arbitrary (AUC of normalised viability)); higher = less growth inhibition
Procedure: as §1

[18] = system: 786-O; experiment: as above
Procedure: as §1

[19] = system: A498; experiment: as above
Procedure: as §1

[20] = system: ACHN; experiment: as above
Procedure: as §1

[21] = system: CAKI-1; experiment: as above
Procedure: as §1

[22] = system: SN12C; experiment: as above
Procedure: as §1

[23] = system: TK-10; experiment: as above
Procedure: as §1

[24] = system: UO-31; experiment: as above
Procedure: as §1

Row | Compound | GI50, drug alone [1] [µM] | GI50, drug alone [2] [µM] | GI50, drug alone [3] [µM] | GI50, drug alone [4] [µM] | GI50, drug alone [5] [µM] | GI50, drug alone [6] [µM] | GI50, drug alone [7] [µM] | GI50, drug alone [8] [µM] | minimum viability across doses [9] | minimum viability across doses [10] | minimum viability across doses [11] | minimum viability across doses [12] | minimum viability across doses [13] | minimum viability across doses [14] | minimum viability across doses [15] | minimum viability across doses [16] | AUC of dose-response viability curve [17] | AUC of dose-response viability curve [18] | AUC of dose-response viability curve [19] | AUC of dose-response viability curve [20] | AUC of dose-response viability curve [21] | AUC of dose-response viability curve [22] | AUC of dose-response viability curve [23] | AUC of dose-response viability curve [24]
1 | CCc1cc2c(cc1N1CCC(N3CCOCC3)CC1)C(C)(C)c1[nH]c3cc(C#N)ccc3c1C2=O | > 10 | > 10 | > 10 | 5.47 | 5.02 | > 10 | > 10 | > 10 | 0.922 | 0.655 | 1.06 | 0.366 | 0.428 | 0.801 | 0.612 | 1.02 | 3.67 | 3 | 5.08 | 3 | 2.98 | 3.28 | 2.93 | 6.33
2 | CN1CCN(c2cccc(Nc3nc4c(-c5ccc(S(C)(=O)=O)cc5)cccn4n3)c2)CC1 | > 10 | > 10 | > 10 | 1.4 | 2.31 | > 10 | 3.53 | > 10 | 0.782 | 0.585 | 1.13 | 0.293 | 0.244 | 0.599 | 0.298 | 0.707 | 3.49 | 3.18 | 4.91 | 2.65 | 2.85 | 3.13 | 2.82 | 4.6
3 | CN(C)c1ccc(-c2nc3c(N4CCN(CC(=O)Nc5nccs5)CC4)c(Cl)cnc3[nH]2)cc1 | 5.51 | 2.76 | > 10 | 1.86 | 1.26 | 5.4 | > 10 | 2.01 | 0.39 | 0.259 | 0.622 | 0.18 | 0.115 | 0.434 | 0.574 | 0.0202 | 2.85 | 2.24 | 4.21 | 2.58 | 2.57 | 2.76 | 2.91 | 3.93
4 | Cc1cc(CN2CCN(c3c(Br)cnc4[nH]c(-c5ccc(N6CCN(C)CC6)cc5)nc34)CC2)no1 | 0.858 | 0.451 | 3.35 | 0.732 | 0.885 | 2.42 | 2.84 | 8.57 | 0.0185 | 0.00301 | 0.0157 | 0.00704 | 0.00778 | 0.0135 | 0.177 | 0.0211 | 2.44 | 2.01 | 3.57 | 2.36 | 2.6 | 2.74 | 2.61 | 4.13
5 | Cc1cc2c(F)c(Oc3ncnn4cc(OC[C@@H](C)OC(=O)[C@H](C)N)c(C)c34)ccc2[nH]1 | > 10 | 8.62 | > 10 | 8.45 | > 10 | > 10 | > 10 | 9.72 | 0.818 | 0.358 | 0.898 | 0.417 | 0.605 | 0.75 | 0.637 | 0.458 | 3.33 | 2.99 | 3.68 | 2.61 | 3.29 | 3.35 | 3.26 | 3.77
6 | O=C(NOCC1CC1)c1ccc(F)c(F)c1Nc1ccc(I)cc1Cl | 5.01 | 4.38 | > 10 | 3.51 | 4.19 | > 10 | 4.99 | > 10 | 0.233 | 0.41 | 0.593 | 0.263 | 0.23 | 0.467 | 0.362 | 0.779 | 2.96 | 2.98 | 3.44 | 2.78 | 3.04 | 2.86 | 2.68 | 4.14
7 | Nc1nc(NCCNc2ncc(-n3ccnc3)c(-c3ccc(Cl)cc3Cl)n2)ccc1[N+](=O)[O-] | 2.72 | 1.24 | > 10 | 3.93 | 7.77 | 9.82 | 1.92 | 1.65 | 0.0343 | 0.013 | 0.701 | 0.0311 | 0.211 | 0.455 | 0.0728 | 0.0119 | 2.89 | 2.36 | 4.54 | 3.06 | 3.69 | 3.5 | 2.43 | 3.59
8 | COCCOc1ccc2c(c1)ncn2-c1ccc2cccc(N3CCC(N)CC3)c2n1 | 6.04 | 0.631 | 3.3 | 2.48 | 2.11 | 2.8 | 2.12 | 2.91 | 0.333 | 0.00547 | 0.0414 | 0.0176 | 0.292 | 0.0384 | 0.198 | 0.00652 | 3.12 | 1.81 | 3.27 | 2.7 | 2.66 | 2.92 | 2.43 | 3.38
9 | NC1(Cc2ccc(Cl)cc2)CCN(c2ncnc3[nH]ccc23)CC1 | 8.76 | 0.631 | > 10 | 5.91 | > 10 | 7.35 | 4.56 | 3.8 | 0.432 | 0.0631 | 0.905 | 0.287 | 0.348 | 0.431 | 0.284 | 0.00579 | 3.31 | 2.17 | 4.01 | 3.38 | 3.21 | 3.08 | 3.01 | 4.18
